Data taken from patent US20100222332A1, “PYRAZOLO-PYRAZINES DERIVATIVES USED AS G PROTEIN INHIBITORS” (Ipsen Pharma S.A.S., priority 2007, published 2010).
pIC50: −log10 of the molar value. Structures can show the parent of a compound that is named as a salt. Where two headings read alike, the source gives them in different places.

What was measured:
Type in all cases: cell-based
[1] = test system: DU145 (human prostate cancer cells); experiment: Anti-proliferative activity on DU145 cell line (WST1 colorimetric test); conditions: DU-145, treated for 96 hours, read-out: IC50 on the cell proliferation of the DU145 lines
Procedure: (§1) By way of example, the effect of a treatment on three human cell lines DU145, LNCaP and A2058 with the compounds of the examples described previously will be studied. The cell lines DU145 and LNCaP (human prostate cancer cells) and A2058 (human melanoma cancer cells) were acquired from the American Tissue Culture Collection (Rockville, Md., USA). The cells placed in 80 μl of Dulbecco's Modified Eagle medium (Gibco-Brl, Cergy-Pontoise, France) completed with 10% foetal calf serum inactivated by heating (Gibco-Brl, Cergy-Pontoise, France), 50000 units/l of penicillin and 50 mg/l streptomycin (Gibco-Brl, Cergy-Pontoise, France), and 2 mM of glutamin (Gibco-Brl, Cergy-Pontoise, France) were seeded on a 96-well plate on day 0. The cells were treated on day 1 for 96 hours with increasing concentrations of each of the compounds to be tested up to 10 μM. At the end of this period, the quantification of the cell proliferation is evaluated by a colorimetric test based on the cleavage of the tetrazolium salt WST1 by mitochondrial dehydrogenases in the viable cells leading to the formation of formazan (Boehringer Mannheim, Meylan, France). These tests are carried out in duplicate with 8 determinations per tested concentration. For each compound to be tested, the values included in the linear part of the sigmoid were retained for linear regression analysis and used in order to estimate the inhibitory concentration IC50. The products are solubilized in dimethylsulphoxide (DMSO) at 10^−2 M and finally used in culture with 0.1% DMSO.

[2] = test system: A2058 (human melanoma cancer cells); experiment: Anti-proliferative activity on A2058 cell line (WST1 colorimetric test); conditions: treated for 96 hours, read-out: IC50 on the cell proliferation of the A2058 lines; for IC50: bound given in mM
Procedure: as §1

[3] = test system: LNCaP (human prostate cancer cells); experiment: Anti-proliferative activity on LNCaP cell line (WST1 colorimetric test); conditions: treated for 96 hours, read-out: IC50 on the cell proliferation of the LNCaP lines
Procedure: as §1

Compound | pIC50 ([1]; unit inferred) | pIC50 [2] | pIC50 [3] | pIC50 [1] | IC50 [2]
N[C@@H](CSSC[C@H](N)C(=O)N1CCn2nc(-c3cccs3)cc2C1CCc1ccccc1)C(=O)N1CCn2nc(-c3cccs3)cc2C1CCc1ccccc1 (mixture of isomers) [Example 18, (2R)-3-({(2R)-2-amino-3-oxo-3-[(4RS)-4-(2-phenylethyl)-2-(2-thienyl)-6,7-dihydropyrazolo[1,5-a]pyrazin-5(4H)-yl]propyl}dithio)-1-oxo-1-[(4RS)-4-(2-phenylethyl)-2-(2-thienyl)-6,7-dihydropyrazolo[1,5-a]pyrazin-5(4H)-yl]propan-2-amine hydrochloride] | ≥ 4.82 | ≥ 4.70 | ≥ 5.30 | – | –
CCCCC1c2cc(-c3ccccc3)nn2CCN1C(=O)[C@@H](N)CSSC[C@H](N)C(=O)N1CCn2nc(-c3ccccc3)cc2C1CCCC (mixture of isomers) [Example 21, (2R)-3-({(2R)-2-amino-3-[(4RS)-4-butyl-2-phenyl-6,7-dihydropyrazolo[1,5-a]pyrazin-5(4H)-yl]-3-oxopropyl}dithio)-1-[(4RS)-4-butyl-2-phenyl-6,7-dihydropyrazolo[1,5-a]pyrazin-5(4H)-yl]-1-oxopropan-2-amine hydrochloride] | – | – | ≥ 5.30 | ≥ 4.70 | ≤ 0.01 mM
N[C@@H](CSSC[C@H](N)C(=O)N1CCn2nc(-c3ccccc3)cc2C1CC1CCCCC1)C(=O)N1CCn2nc(-c3ccccc3)cc2C1CC1CCCCC1 (mixture of isomers) [Example 12, (2R)-3-({(2R)-2-amino-3-[(4RS)-4-(cyclohexylmethyl)-2-phenyl-6,7-dihydropyrazolo[1,5-a]pyrazin-5(4H)-yl]-3-oxopropyl}dithio)-1-[(4RS)-4-(cyclohexylmethyl)-2-phenyl-6,7-dihydropyrazolo[1,5-a]pyrazin-5(4H)-yl]-1-oxopropan-2-amine hydrochloride] | – | – | ≥ 6.00 | ≥ 5.00 | ≤ 0.01 mM
N[C@@H](CSSC[C@H](N)C(=O)N1CCn2nc(-c3ccc4c(c3)OCO4)cc2C1CCc1ccccc1)C(=O)N1CCn2nc(-c3ccc4c(c3)OCO4)cc2C1CCc1ccccc1 (mixture of isomers) [Example 16, (2R)-3-({(2R)-2-amino-3-[(4RS)-2-(1,3-benzodioxol-5-yl)-4-(2-phenylethyl)-6,7-dihydropyrazolo[1,5-a]pyrazin-5(4H)-yl]-3-oxopropyl}dithio)-1-[(4RS)-2-(1,3-benzodioxol-5-yl)-4-(2-phenylethyl)-6,7-dihydropyrazolo[1,5-a]pyrazin-5(4H)-yl]-1-oxopropan-2-amine hydrochloride] | – | ≥ 4.52 | ≥ 5.00 | ≥ 4.70 | –
